Reference: patent US20230280334A1, “CDC20 VARIANTS RESISTANT TO ANTI-MITOTIC DRUGS AND RELATED METHODS AND COMPOSITIONS” (Whitehead Institute for Biomedical Research, priority 2021, published 2023)

Columns and labels:
[1] = tested on: ΔM1 mutant cell line (HeLa lacking the canonical M1 ATG start codon of CDC20); experiment: Time-lapse mitotic arrest duration in ΔM1 mutant cell line; type: cell-based, human; settings: for mitotic arrest / mitotic exit behaviour in the presence of STLC: ΔM1 cells, 10 µM STLC alone or with the named agent; for Mitotic time (min), ΔM1: in the presence of 10 µM STLC with the indicated drug or RNAi treatment, mean ± standard deviation, two replicates
Description: (§1) Mitotic arrest duration in the presence of 10 µM STLC for control HeLa compared to the ΔM1 and M1-stop mutant cell lines with the indicated drug or RNAi treatment (see FIGS. 3F, 9D). Indicated is the mean mitotic duration ± standard deviation across two experimental replicates. Statistics from Mann-Whitney Test (**** = p < 0.0001, NS = not significant).
(§2) HeLa, hTERT-RPE1, U2OS, and A549 cell lines were cultured in Dulbecco’s modified Eagle medium (DMEM) supplemented with 10% fetal bovine serum (FBS), 100 U/mL penicillin and streptomycin, and 2 mM L-glutamine at 37° C. with 5% CO2. Doxycycline-inducible cell lines were cultured in medium containing FBS certified tetracycline free. Cas9 expression in inducible CRISPR/Cas9 cell lines was induced with 1 µg/ml doxycycline hyclate (##) at 24 hr interval for 2 days. Other drugs used on human cells were Nocodazole (##, 330 nM), S-trityl-L-cysteine (STLC, ##, 10 µM), Taxol (##, 1 µM), GSK923295 (CENP-E inhibitor, ##, 100 nM), proTAME (APC/Ci, ##, 12 µM), AZ-3146 (Mps1i, ##, 4 µM) unless concentration indicated otherwise in figure legend. Cells were enriched in mitosis with treatment with 330 nM nocodazole for 16-17 hrs. Cell lines were tested monthly for mycoplasma contamination.
(§3) Stable clonal cell lines lacking the canonical full-length Cdc20 protein were obtained by transfecting HeLa cells with pX330-based plasmids [Cong 2013] expressing spCas9 and either the sgM1 (for ΔM1 mutant) or the sgExon1 guide RNA (for M1-stop mutant). pX330-based plasmids were transfected using Xtremegene-9 (##) together with a mCherry-expressing plasmid and mCherry-positive cells were fluorescence activated cell-sorted into 96 well plates with one cell per well. Clones were screened for successful gene editing and the CDC20 allele sequence information was determined by next-generation sequencing (Genewiz Amplicon-EZ).
(§4) Cells were later moved to CO2-independent media (##) before imaging at 37° C. Phase contrast images were acquired on a Nikon eclipse microscope equipped with a charge-coupled device (CCD) camera (Clara, Andor) or a CMOS camera (##) using a Plan Fluor 20X/0.5 NA objective at either 5 min or 10 min intervals. Time-lapse movies were analyzed using Fiji (ImageJ, NIH), ilastik (##) and CellProfiler (##). Image brightness and contrast was adjusted in Fiji, pixel-based classification was performed on individual images using ilastik and the resulting probability map images were processed by CellProfiler to identify and track mitotic cells. Each mitotic cell was then confirmed manually and the mitotic duration was determined as the time from cell rounding at mitotic entry to cell flattening after mitotic exit.

[2] = tested on: M1-stop mutant cell line (HeLa lacking full-length Cdc20); experiment: Time-lapse mitotic arrest duration in M1-stop mutant cell line; type: cell-based, human; settings: for mitotic arrest / mitotic exit behaviour in the presence of STLC: M1-stop cells, 10 µM STLC alone or with the named agent; for Mitotic time (min), M1-stop: in the presence of 10 µM STLC with the indicated drug or RNAi treatment, mean ± standard deviation, two replicates
Description: as §1, §2, §3, §4

HeLa cells = experiment: Time-lapse mitotic timing / mitotic arrest duration in HeLa cells; type: cell-based, human; settings: for median arrest time / median mitotic arrest duration: HeLa; for median arrest time: 10 µM STLC (FIG. 6D); for median mitotic arrest duration: 10 µM STLC (FIG. 5E); for Mitotic time (min), HeLa: in the presence of 10 µM STLC with the indicated drug or RNAi treatment, mean ± standard deviation, two replicates
Description: as §1, §2, §4

U2OS cells = experiment: Time-lapse mitotic arrest duration in U2OS cells; type: cell-based, human; settings: for median arrest time: U2OS, 10 µM STLC (FIG. 6D)
Description: (§5) FIGS. 6A-6D show downstream in-frame Cdc20 translation initiation influences the mitotic slippage behavior of cancer cell lines. (FIG. 6A) Mitotic arrest duration of individual HeLa, U2OS, or A549 cells treated with 10 µM STLC alone or with a combination of STLC and siRNA treatment (either control siRNAs or Cdc20 siRNAs). Cells entering mitosis in the first 600 min (HeLa) or 700 min (U2OS/A549) of time lapse experiments were included in analyses. Open red circles indicate cells that exit mitosis. Closed black circles indicate cells that remained arrested in mitosis till the end of the time lapse. Blue circles indicate cells that die in mitosis. Bars correspond to median. Indicated are the median mitotic duration times across two experimental replicates. (FIG. 6B) Western blot of mitotically-enriched U2OS cells expressing endogenous Cdc20 protein or upon Cdc20 replacement with either wild-type CDC20 cDNA or a CDC20 M43L M88L mutant construct. Cells were enriched in mitosis with 10 µM STLC for 18 hrs. Cdc20 protein was detected using antibodies recognizing the human Cdc20 C-terminus (aa 450-499). β-actin was used as loading control. (FIG. 6C) Western blot similar to (B) for A549 cells except that ectopic constructs were induced with 50 ng/ml doxycycline. (FIG. 6D) Top, schematic illustrating the Cdc20 replacement strategy with siRNA-resistant 5′ UTR-CDC20 cDNA constructs from a doxycycline-inducible promoter combined with depletion of endogenous Cdc20 protein by siRNA treatment. Cells were treated with 10 ng/ml (HeLa/U2OS) or 50 ng/ml (A549) doxycycline. […]
(§6) Cells were later moved to CO2-independent media (##) before imaging at 37° C. […] Time-lapse movies were analyzed using Fiji (ImageJ, NIH), ilastik (##) and CellProfiler (##). […] Each mitotic cell was then confirmed manually and the mitotic duration was determined as the time from cell rounding at mitotic entry to cell flattening after mitotic exit.

A549 cells = experiment: Time-lapse mitotic arrest duration in A549 cells; type: cell-based, human; settings: for median arrest time: 10 µM STLC (FIG. 6D)
Description: as §5, §6

HEC-6 cells = experiment: Mitotic arrest duration in HEC-6 cells; type: cell-based; settings: 10 µM STLC (FIG. 14C)
From the text: (FIG. 14B) HEC-6 cells express reduced levels of full-length Cdc20 protein and thus higher relative levels of the alternative Cdc20 isoforms, compared to control HeLa cells.

[3] = Cdc20 replacement with Cdc20 M43L M88L
[4] = Cdc20 replacement with wild-type CDC20 construct

AZ3146 was tested, and the “mitotic arrest / mitotic exit behaviour in the presence of STLC” value (“mitotic arrest / mitotic exit behaviour” for short) [1] was “not exacerbated further” and the “mitotic arrest / mitotic exit behaviour” value [2] was “further reduce the arrest”.

N[C@@H](CSC(c1ccccc1)(c1ccccc1)c1ccccc1)C(=O)O [STLC, S-trityl-L-cysteine] was tested, and the median arrest time (HeLa cells; [3]) was 2110 min, the median arrest time (HeLa cells; [4]) was 1755 min and the “median mitotic arrest duration” value (HeLa cells; endogenous Cdc20 replaced with altATGmutx2 mutant construct) was 1370 min. For the same molecule, the “median mitotic arrest duration” value (HeLa cells; endogenous Cdc20 replaced with wild-type siRNA-resistant CDC20 construct) was 1810 min, the “median mitotic arrest time” value (HeLa cells; STLC-treated HeLa, 10 µM STLC alone (FIG. 6A)) was 1645 min and the “time arrested in mitosis after mitotic entry” value (HeLa cells; control HeLa, 10 µM STLC, time-lapse (FIG. 3A)) was greater than 10 h. The “Mitotic time (min), HeLa” value (HeLa cells; listed as STLC/DMSO) was 780±203 (n=103) min, the “Mitotic time (min), HeLa” value (HeLa cells; listed as STLC/siCtrl) was 805±168 (n=122) min and the “Mitotic time (min), ΔM1” value ([1]; listed as STLC/DMSO) was 60±24 (n=97) min. For the same molecule, the “Mitotic time (min), ΔM1” value ([1]; listed as STLC/siCtrl) was 65±37 (n=88) min, the “mitotic arrest / mitotic exit behaviour” value [1] was “exit mitosis within a few hours” and the “mitotic arrest / mitotic exit behaviour” value [2] was “exit mitosis within a few hours”. For the same molecule, the “Mitotic time (min), M1-stop” value ([2]; listed as STLC/DMSO) was 67±12 (n=85) min, the “Mitotic time (min), M1-stop” value ([2]; listed as STLC/siCtrl) was 70±18 (n=90) min and the “median mitotic arrest time” value (U2OS cells; STLC-treated U2OS, 10 µM STLC alone (FIG. 6A)) was 805 min. The median arrest time (U2OS cells; [3]) was 1100 min, the median arrest time (U2OS cells; [4]) was 690 min and the median arrest time (A549 cells; A549, Cdc20 replacement with Cdc20 M43L M88L) was 1140 min. For the same molecule, the median arrest time (A549 cells; A549, Cdc20 replacement with wild-type CDC20 construct) was 920 min, the “median mitotic arrest time” value (A549 cells; STLC-treated A549, 10 µM STLC alone (FIG. 6A)) was 780 min and the “mitotic arrest duration compared to control HeLa cells” value (HEC-6 cells) was “reduced mitotic arrest duration compared to control HeLa cells”.

With COC(=O)[C@H](CCCN=C(NC(=O)OCOC(=O)Cc1ccccc1)NC(=O)OCOC(=O)Cc1ccccc1)NS(=O)(=O)c1ccc(C)cc1 [proTAME] the “mitotic arrest / mitotic exit behaviour” value [1] was “suppressed the premature mitotic exit” and the “mitotic arrest / mitotic exit behaviour” value [2] was “suppressed the premature mitotic exit”.
